Experimental data published in patent publication US20250195530A1, “POLQ INHIBITORS” (ASTRAZENECA AB, priority 2022, published 2025).

test system: DLD-1 BRCA2−/− cells; test: Homologous recombination synthetic lethal inhibition of proliferation, DLD-1 BRCA2-/- (Cell Titre Glo 3D); assay type: cell-based; conditions: Homo sapiens, DLD-1, first proliferation column (c5); DLD-1 BRCA2-/-; read-out: POLQ PD Prolif Lumin (converted)
Method in brief: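 Wild-type DLD-1 serves as the control for non-specific toxicity, and BRCA2-null DLD-1 as the homologous-recombination-deficient line. Both grew with compound from 10 μM down to 0.51 nM, re-dosed after 6 days. Luminescent ATP content (CellTiter-Glo 3D) was read after 7 or 12 days, respectively, to give IC50 values.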

| Structure (SMILES) | IC50 |
| --- | --- |
| Cc1ccnc(Cn2c(-c3ccc(O[C@H]4CCN(C(=O)CO)C4)cc3Cl)nc3c(OC4(C)CC4)ncnc32)c1 [Example T483, (S)-1-(3-(3-chloro-4-(6-(1-methylcyclopropoxy)-9-((4-methylpyridin-2-yl)methyl)-9H-purin-8-yl)phenoxy)pyrrolidin-1-yl)-2-hydroxyethan-1-one] | 631 nM |
| CC1(Oc2ncnc3c2nc(-c2ccc(OCCN4C[C@H]5C[C@@H]4CN5)cc2Cl)n3Cc2cc(Cl)ccn2)CC1 [Example T485, 8-(4-(2-((1R,4R)-2,5-diazabicyclo[2.2.1]heptan-2-yl)ethoxy)-2-chlorophenyl)-9-((4-chloropyridin-2-yl)methyl)-6-(1-methylcyclopropoxy)-9H-purine] | 501 nM |
| CC1(Oc2ncnc3c2nc(-c2ccc(OCCN4CC5(CCN5)C4)cc2Cl)n3Cc2cc(Cl)ccn2)CC1 [Example T486, 8-(4-(2-(1,6-diazaspiro[3.3]heptan-6-yl)ethoxy)-2-chlorophenyl)-9-((4-chloropyridin-2-yl)methyl)-6-(1-methylcyclopropoxy)-9H-purine] | 501 nM |
| CC1(Oc2ncnc3c2nc(-c2ccc(OCCN4C[C@@H]5C[C@H]4CN5)cc2Cl)n3Cc2cc(Cl)ccn2)CC1 [Example T487, 8-(4-(2-((1S,4S)-2,5-diazabicyclo[2.2.1]heptan-2-yl)ethoxy)-2-chlorophenyl)-9-((4-chloropyridin-2-yl)methyl)-6-(1-methylcyclopropoxy)-9H-purine] | 398 nM |
| Cc1ccnc(Cn2c(-c3ccc(N4CCC5(CNC5)C4)cc3Cl)nc3c(OC4(C)CC4)ncnc32)c1 [Example T490, 8-(2-chloro-4-(2,6-diazaspiro[3.4]octan-6-yl)phenyl)-6-(1-methylcyclopropoxy)-9-((4-methylpyridin-2-yl)methyl)-9H-purine] | 2000 nM |
| Cc1ccnc(Cn2c(-c3ccc(N4CCC5NCCC54)cc3Cl)nc3c(OC4(C)CC4)ncnc32)c1 (stereo not shown) [Example T492, 8-(2-chloro-4-(hexahydropyrrolo[3,2-b]pyrrol-1(2H)-yl)phenyl)-6-(1-methylcyclopropoxy)-9-((4-methylpyridin-2-yl)methyl)-9H-purine] | 398 nM |
| Cc1ccnc(Cn2c(-c3ccc(N4C[C@H]5CCN[C@H]5C4)cc3Cl)nc3c(OC4(C)CC4)ncnc32)c1 [Example T494, 8-(2-chloro-4-((3aR,6aR)-hexahydropyrrolo[3,4-b]pyrrol-5(1H)-yl)phenyl)-6-(1-methylcyclopropoxy)-9-((4-methylpyridin-2-yl)methyl)-9H-purine] | 316 nM |
| CNC(=O)[C@H]1CCN(c2ccc(-c3nc4c(OC5(C)CC5)ncnc4n3Cc3cc(C)ccn3)c(Cl)c2)C1 [Example T497, (S)-1-(3-chloro-4-(6-(1-methylcyclopropoxy)-9-((4-methylpyridin-2-yl)methyl)-9H-purin-8-yl)phenyl)-N-methylpyrrolidine-3-carboxamide] | 501 nM |
| Cc1ccnc(Cn2c(-c3ccc(OCCN4CCNCC4=O)cc3Cl)nc3c(OC4(C)CC4)ncnc32)c1 [Example T498, 1-(2-(3-chloro-4-(6-(1-methylcyclopropoxy)-9-((4-methylpyridin-2-yl)methyl)-9H-purin-8-yl)phenoxy)ethyl)piperazin-2-one] | 316 nM |
| Cc1ccnc(Cn2c(-c3ccc(OCCN4CCNC(=O)C4)cc3Cl)nc3c(OC4(C)CC4)ncnc32)c1 [Example T499, 4-(2-(3-chloro-4-(6-(1-methylcyclopropoxy)-9-((4-methylpyridin-2-yl)methyl)-9H-purin-8-yl)phenoxy)ethyl)piperazin-2-one] | 316 nM |
| CNC(=O)N1CC[C@@H](Oc2ccc(-c3nc4c(OC5(C)CC5)ncnc4n3Cc3cc(C)ccn3)c(Cl)c2)C1 [Example T501, (R)-3-(3-chloro-4-(6-(1-methylcyclopropoxy)-9-((4-methylpyridin-2-yl)methyl)-9H-purin-8-yl)phenoxy)-N-methylpyrrolidine-1-carboxamide] | 794 nM |
| Cc1ccnc(Cn2c(-c3ccc(CC(=O)NCC(C)(C)O)cc3Cl)nc3c(OC4(C)CC4)ncnc32)c1 [Example T515, 2-(3-chloro-4-(6-(1-methylcyclopropoxy)-9-((4-methylpyridin-2-yl)methyl)-9H-purin-8-yl)phenyl)-N-(2-hydroxy-2-methylpropyl)acetamide] | 631 nM |
| Cc1ccnc(Cn2c(-c3ccc(OCC(=O)N[C@H](C)CCO)cc3Cl)nc3c(OC4(C)CC4)ncnc32)c1 [Example T516, (R)-2-(3-chloro-4-(6-(1-methylcyclopropoxy)-9-((4-methylpyridin-2-yl)methyl)-9H-purin-8-yl)phenoxy)-N-(4-hydroxybutan-2-yl)acetamide] | 200 nM |
| Cc1ccnc(Cn2c(-c3ccc(OCC(=O)NCC(C)(C)O)cc3Cl)nc3c(OC4(C)CC4)ncnc32)c1 [Example T517, 2-(3-chloro-4-(6-(1-methylcyclopropoxy)-9-((4-methylpyridin-2-yl)methyl)-9H-purin-8-yl)phenoxy)-N-(2-hydroxy-2-methylpropyl)acetamide] | 398 nM |
| CC[C@H](CO)NC(=O)COc1ccc(-c2nc3c(OC4(C)CC4)ncnc3n2Cc2cc(C)ccn2)c(Cl)c1 [Example T518, (R)-2-(3-chloro-4-(6-(1-methylcyclopropoxy)-9-((4-methylpyridin-2-yl)methyl)-9H-purin-8-yl)phenoxy)-N-(1-hydroxybutan-2-yl)acetamide] | 398 nM |
| Cc1ccnc(Cn2c(-c3ccc(OCC(=O)NC(C)(C)CO)cc3Cl)nc3c(OC4(C)CC4)ncnc32)c1 [Example T519, 2-(3-chloro-4-(6-(1-methylcyclopropoxy)-9-((4-methylpyridin-2-yl)methyl)-9H-purin-8-yl)phenoxy)-N-(1-hydroxy-2-methylpropan-2-yl)acetamide] | 316 nM |
| CC[C@@H](O)CNC(=O)COc1ccc(-c2nc3c(OC4(C)CC4)ncnc3n2Cc2cc(C)ccn2)c(Cl)c1 [Example T520, (R)-2-(3-chloro-4-(6-(1-methylcyclopropoxy)-9-((4-methylpyridin-2-yl)methyl)-9H-purin-8-yl)phenoxy)-N-(2-hydroxybutyl)acetamide] | 398 nM |
| C[C@@H]1CNCCN1CCOc1ccc(-c2nc3c(OC4(C)CC4)ncnc3n2Cc2cc(Cl)ccn2)c(Cl)c1 [Example T522, (R)-8-(2-chloro-4-(2-(2-methylpiperazin-1-yl)ethoxy)phenyl)-9-((4-chloropyridin-2-yl)methyl)-6-(1-methylcyclopropoxy)-9H-purine] | 251 nM |
| Cc1ccnc(Cn2c(-c3ccc(OCC(=O)N4CC[C@@H](C#N)C4)cc3Cl)nc3c(OC4(C)CC4)ncnc32)c1 [Example T538, (R)-1-(2-(3-chloro-4-(6-(1-methylcyclopropoxy)-9-((4-methylpyridin-2-yl)methyl)-9H-purin-8-yl)phenoxy)acetyl)pyrrolidine-3-carbonitrile] | 501 nM |

same assay, conditions: Homo sapiens, DLD-1, proliferation, luminescence, taken as DLD-1 BRCA2-/-; read-out: POLQ PD Prolif Lumin (converted)

| Structure (SMILES) | IC50 |
| --- | --- |
| Cc1ccnc(Cn2c(-c3ccc(OCC(=O)N4CC[C@@H](O)C4)cc3Cl)nc3c(OC4(C)CC4)ncnc32)c1 [Example T473, (R)-2-(3-chloro-4-(6-(1-methylcyclopropoxy)-9-((4-methylpyridin-2-yl)methyl)-9H-purin-8-yl)phenoxy)-1-(3-hydroxypyrrolidin-1-yl)ethan-1-one] | 1000 nM |
| Cc1ccnc(Cn2c(-c3ccc(OCCN4CC[C@@H](O)C4=O)cc3Cl)nc3c(OC4(C)CC4)ncnc32)c1 [Example T474, (R)-1-(2-(3-chloro-4-(6-(1-methylcyclopropoxy)-9-((4-methylpyridin-2-yl)methyl)-9H-purin-8-yl)phenoxy)ethyl)-3-hydroxypyrrolidin-2-one] | 251 nM |
| Cc1ccnc(Cn2c(-c3ccc(OCC(=O)N4CCOCC4)cc3Cl)nc3c(OC4(C)CC4)ncnc32)c1 [Example T475, 2-(3-chloro-4-(6-(1-methylcyclopropoxy)-9-((4-methylpyridin-2-yl)methyl)-9H-purin-8-yl)phenoxy)-1-morpholinoethan-1-one] | 251 nM |
| Cc1ccnc(Cn2c(-c3ccc(OCC(=O)NC4(C)COC4)cc3Cl)nc3c(OC4(C)CC4)ncnc32)c1 [Example T476, 2-(3-chloro-4-(6-(1-methylcyclopropoxy)-9-((4-methylpyridin-2-yl)methyl)-9H-purin-8-yl)phenoxy)-N-(3-methyloxetan-3-yl)acetamide] | 251 nM |
| Cc1ccnc(Cn2c(-c3ccc(OCC(=O)N4CC(C)(O)C4)cc3Cl)nc3c(OC4(C)CC4)ncnc32)c1 [Example T477, 2-(3-chloro-4-(6-(1-methylcyclopropoxy)-9-((4-methylpyridin-2-yl)methyl)-9H-purin-8-yl)phenoxy)-1-(3-hydroxy-3-methylazetidin-1-yl)ethan-1-one] | 1260 nM |
| Cc1ccnc(Cn2c(-c3ccc(OCC(=O)N[C@@H]4CCOC4)cc3Cl)nc3c(OC4(C)CC4)ncnc32)c1 [Example T478, (R)-2-(3-chloro-4-(6-(1-methylcyclopropoxy)-9-((4-methylpyridin-2-yl)methyl)-9H-purin-8-yl)phenoxy)-N-(tetrahydrofuran-3-yl)acetamide] | 501 nM |
| Cc1ccnc(Cn2c(-c3ccc(OCC(=O)NC4CC(O)C4)cc3Cl)nc3c(OC4(C)CC4)ncnc32)c1 (stereo not shown) [Example T479, 2-(3-chloro-4-(6-(1-methylcyclopropoxy)-9-((4-methylpyridin-2-yl)methyl)-9H-purin-8-yl)phenoxy)-N-(3-hydroxycyclobutyl)acetamide] | 398 nM |
| Cc1ccnc(Cn2c(-c3ccc(OCC(=O)N(C)C4COC4)cc3Cl)nc3c(OC4(C)CC4)ncnc32)c1 [Example T480, 2-(3-chloro-4-(6-(1-methylcyclopropoxy)-9-((4-methylpyridin-2-yl)methyl)-9H-purin-8-yl)phenoxy)-N-methyl-N-(oxetan-3-yl)acetamide] | 501 nM |
| Cc1ccnc(Cn2c(-c3ccc(OCCN4CCOCC4=O)cc3Cl)nc3c(OC4(C)CC4)ncnc32)c1 [Example T481, 4-(2-(3-chloro-4-(6-(1-methylcyclopropoxy)-9-((4-methylpyridin-2-yl)methyl)-9H-purin-8-yl)phenoxy)ethyl)morpholin-3-one] | 316 nM |
